Laboratory results taken from publication PMC6624297 (Cell Death & Disease, 2019).

Experiments:
MDA-MB-231 cells = test: MTT assay MDA-MB-231; type: cell-based; settings: Homo sapiens, 24h of treatment, mean ± SD
Method: (§1) Details are given in Supplementary Materials and Methods. Using probability unit and weighted regression method to calculate the IC50 value of compounds.
(§2) Total cells in the logarithmic growth phase were collected, digested using 0.25% pancreatic enzymes, and then diluted into single-cell suspensions using phosphate-buffered solution (PBS). These cells were seeded into 96-well plates at 4× 10^3-5× 10^3 cells per well (100 µL per well) and then A549, H460, OVCAR-3, SGC7901, MDA-MB-231, HCT116 and HepG2 were cultured at 37°Cin an incubator containing 5% CO2. After cell complete attachment, 100 µL of different concentrations of compounds (0.625 μM, 1.25 μM, 2.5μM, 5 μM, 10 μM) were added to the cells after the nutrient solution in each well was discarded, while no compound except 0.1% DMSO was added to cells in the control group; at the same time, each concentration was set up to 5 wells. In addition, 5 wells in each 96-well plate only received 100 µL of nutrient solution as a blank control. The plates were taken out after the cells were incubated with compounds for 24 h, and 20 µL of MTT solution (5 mg/mL) (Wuhan Boster Biotechnology Limited Company, Wuhan, China; item No. AR1156) was added into all the wells. After another time of incubation for 4 h at 37 °C, the nutrient solution in each well was discarded slowly, and 150 µL of DMSO was added to each well. The plates were shaken on a shaking table for 20 min. When the crystals were fully dissolved, the blank wells were used to zero the plate reader. The optical density (OD) of each well was detected at 490 nm. The IC50 value was determined as the concentration of the inhibitor that caused 50% inhibition. Using probability unit and weighted regression method to calculate the IC50 value of compounds.

p-EGFR, p-AKT, p-ERK1/2 [1] = test: Western blot EGFR signaling pathway, H460; type: cell-based, human; settings: H460, 0.5, 1.0, 1.5 μM, 24 h, EGF 50 ng/ml
Method: (§3) A549 cells, H460 cells and HUVECs were treated with different concentrations of compound L14e for 24 h. Primary antibodies (100 μL/cm^2): P53(10442-1-AP, Proteintech Group),caspase-3 (19677-1-AP, Proteintech Group), bax (50599-2-lg, Proteintech Group), bcl-2 (12789-1-AP, Proteintech Group), cleaved caspase-3 (25546-1-AP, Proteintech Group), β-actin (60008-1-lg, Proteintech Group), EGFR (ab21074, Abcam), AKT (#2920, Cell Signaling Technology), ERK1/2 (#4370, Cell Signaling Technology), VEGFR-2 (#9698, Cell Signaling Technology), p-EGFR (ab40815, Abcam), p-AKT (#4060, Cell Signaling Technology), p-ERK1/2 (#4695, Cell Signaling Technology), p-VEGFR-2 (#3770, Cell Signaling Technology), and GAPDH (ab181603, Abcam). The cellular levels of proteins were determined by standard Western blotting. Details were given in Supplementary Materials and Methods.
(§4) A549 cells, H460 cells and HUVECs were treated with different concentrations of compound L14e for 24 h, and collected to establish their respective treatment groups. […]
(§5) Extracted proteins were separated from each other using polyacrylamide electrophoresis on a 10 % gel (Beyotime Biotechnology Company, Shanghai, China) and transferred to a polyvinylidene fluoride (PVDF) membrane. […] Gray values of protein bands were quantitatively analyzed, with the gray value of β-actin(GAPDH) band as the reference.

A549 cells = test: MTT assay A549; type: cell-based, human
Method: as §1, §2

IOSE80 cell line = test: Selectivity index against IOSE80; type: cell-based; settings: SI = CC50/IC50
H460 cells = test: MTT assay H460; type: cell-based, human
Method: as §1
as §2, with “After another time of incubation for 4 h at 37 °C, the nutrient solution in each well was discarded slowly, and 150 µL of DMSO was added to each well. The plates were shaken on a shaking table for 20 min.” left out, “The IC50 value was determined as the concentration of the inhibitor that caused 50% inhibition. Using probability unit and weighted regression method to calculate the IC50 value of compounds.” left out

VEGF = VEGF secretion ELISA in A549 supernatant; type: cell-based, human; settings: ELISA of cell supernatant
Method: Since the inhibitory effect of the compound on A549 cells was stronger than that of H460, the A549 cells were treated with different concentrations of L14e. Taking the supernatant of the cells to detect the change of VEGF content by ELISA assays, and the effect of the supernatant on the formation of endothelial cells was detected.

HCoEpiC cell line = test: Selectivity index against HCoEpiC; type: cell-based; settings: SI = CC50/IC50
HCT-116 cells = test: MTT assay HCT-116; type: cell-based; settings: Homo sapiens, 24h of treatment, mean ± SD
Method: as §1, §2

HUVECs = test: Tube formation in vitro; type: cell-based, human
Method: Matrigel was thawed at 4 °C and 50 μL of the solution were added to each well in a 96-well plate and formed a gel at 37 °C for 30 min. HUVECs were suspended at 1 × 10^4 cells in 100 μL of A549 cell supernatant with or without L14e (0, 0.5, 1.0, and 1.5 μM), and then added to each well. After 24h-incubation, the degree of tube formation was determined by counting the number of areas surrounded by tubes contained in 10 random fields, and expressed as mean ± SD. Using Image J for data analysis.

p-EGFR, p-AKT, p-ERK1/2 [2] = test: Western blot EGFR signaling pathway, A549; type: cell-based, human; settings: A549, 0.5, 1.0, 1.5 μM, 24 h, EGF 50 ng/ml
Method: as §3, §4, §5

O=C(Nc1cccc(Cl)c1)Nc1ccccc1NS(=O)(=O)c1c[nH]c(=O)[nH]c1=O [Compound L14e, N'-(3-chlorophenyl)-2-(2,4-dihydroxypyrimidine-5-sulfonamido)phenyl urea]
IC50 (MDA-MB-231 cells): 2.6 ± 0.08 µM
expression of phosphorylated EGFR (Tyr1068) and AKT (Ser473) (p-EGFR, p-AKT, p-ERK1/2 [1]): significantly reduced
anti-proliferative potency relative to PTX, A549 (A549 cells): nearly five times higher
IC50 (A549 cells; Homo sapiens, A549, 24h of treatment, mean ± SD): 0.67 ± 0.22 µM
SI (Selectivity index) IOSE80 (IOSE80 cell line): 8.79
anti-proliferative potency relative to PTX, H460 (H460 cells): nearly five times higher
inhibition of proliferation of H460 cells compared with PTX and compound 10l (H460 cells; Fig. 2B(b)): significantly more inhibitory
secretion of VEGF in A549 cells (VEGF): significantly reduce the secretion of VEGF
SI (Selectivity index) HCoEpiC (HCoEpiC cell line): 9.40
IC50 (HCT-116 cells): 1.98 ± 0.18 µM
expression of phosphorylated VEGFR-2 (Tyr1175) in HUVECs (HUVECs; dose-dependent): inhibiting the expression of phosphorylated VEGFR-2
tube formation of HUVECs (HUVECs; supernatant of A549 cells treated with 0.5, 1.0, 1.5 μM, 24 h): inhibited tube formation
expression of phosphorylated EGFR (Tyr1068) and AKT (Ser473) (p-EGFR, p-AKT, p-ERK1/2 [2]): significantly reduced
